Assays:
Gr-1+/CD115+ MDSCs = assay: HA-TCR T-cell proliferation with MDSCs and MAP kinase activator or inhibitors; type: cell-based, mouse; conditions: HA peptide, three days, viable T cell count, FIG. 13A
Protocol: To determine whether MAP kinase is involved in MDSC-mediated T cell suppression and Treg activation, monocytic MDSCs (Gr-1+/CD115+) were purified from spleen of tumor bearing mice and the suppressive function was evaluated. Purified T cells from HA-TCR transgenic T cells were cultured in the presence or absence of irradiated purified Gr-1+/CD115+ MDSCs from tumor-bearing mice, irradiated splenocytes from naïve mice as antigen presenting cells, anisomycin, various inhibitors, and HA peptide (0.5 μg/m1). Three days later, T cell proliferation was assessed by counting viable (trypan blue negative) total T cell number. Proliferation percentages were calculated by the number of experimental group divided by the number of T cell without MDSC, anisomycin or inhibitors (SB, PD). *p<0.05 by ANOVA t-test (FIG. 13A).

MDSCs = assay: Foxp3 RT-PCR of MDSC-activated T regulatory cells with MAP kinase activator or inhibitors; type: cell-based, mouse; conditions: FIG. 13B
Protocol: The expression of Foxp3 and actin (as internal control) was determined by RT-PCR in MDSC-activated T regulatory cells in the presence of p38 MAP kinase activator, anisomycin, p38 MAP kinase inhibitor, SB, and Erk inhibitor, PD (FIG. 13B).

DSS-induced colitis = DSS-induced colitis in vivo model; parameters: species or system C57BL/6 mice; conditions: day 11, in comparison with naive healthy mice, FIG. 5C
Text: In certain aspects, the invention is related to the treatment of IBDs. Mouse models of IBD are well known in the art, and may be used to model human IBDs. For example, dextran sodium sulfate (DSS) may be administered to mice to induce IBD. In this model, mice are fed with water containing 3.5% DSS from day 0 to day 11. Following treatment, mice develop colitis. The severity of colitis is quantified (assigned a clinical score) by assessing stool consistency, bleeding, and weight loss, which ranges from 0 (healthy) to 4 (maximal severity). Histologically, DSS produces submucosal erosions, ulceration, inflammatory cell infiltration and crypt abscess as well as epithelioglandular hyperplasia. […] [Kawada et al., 2007, World J. Gastroenterol. 13: 5581-5593; Okayasu et al., 1990, Gastroenterology 98:694-702]
For adoptive transfer of MDSCs, 5×10^6 purified MDSCs suspended in PBS were administered by intravenous infusion at day 0 and day 7.
Mice were left untreated or treated with sorted MDSCs (5×10^6 cells/mouse) alone or in combination with GA and/or SP600125 (Sigma-Aldrich), on the day of disease induction. […] The severity of colitis was quantitated as a clinical score by assessing stool consistency, bleeding, and weight loss, which ranges from 0 (healthy) to 4 (maximal severity). The clinical score (weight loss, stool consistency, and bleeding) of treated mice was assessed in a double-blind fashion.
On day 11 post-IBD induction, colon tissues from treated mice were removed, fixed in 3% formaldehyde, sectioned, and stained with H&E staining to determine the pathology score of colitis. To reflect the general condition of the mice, a disease activity index (DAI) was determined by an investigator blinded to the protocol by scoring the extent of body weight loss, stool guaiac positivity or gross bleeding, and stool consistency according to the method described in Murthy et al. (1993) “Treatment of Dextran Sulfate Sodium-Induced Murine Colitis by Intracolonic Cyclosporin,” Digest. […] Stool consistency and the degree of blood in stool were evaluated on the day when animals were killed. […]

| SMILES | MDSC suppression of HA-TCR T-cell proliferation (Gr-1+/CD115+ MDSCs) | Treg induction by MDSCs as assessed by Foxp3 expression by RT-PCR (MDSCs) | decrease in colonic length (DSS-induced colitis) |
| --- | --- | --- | --- |
| C[S+]([O-])c1ccc(-c2nc(-c3ccc(F)cc3)c(-c3ccncc3)[nH]2)cc1 (stereo not shown) [SB203580, 4-(4-Fluorophenyl)-2-(4-methylsulfinylphenyl)-5-(4-pyridyl)-1H-imidazole] | not reverted or enhanced | not significantly different | – |
| COc1ccc(C[C@H]2NC[C@H](O)[C@H]2OC(C)=O)cc1 [anisomycin] | reverted the suppressive activity | decreased Treg induction | – |
| COc1cccc(-c2cc(=O)c3ccccc3o2)c1N [PD98059, 2-(2-Amino-3-methoxyphenyl)-4H-1-benzopyran-4-one] | not reverted or enhanced | not significantly different | – |
| Oc1c2ccccc2c2c3c(cccc13)N=N2 [SP600125, 1,9-Pyrazoloanthrone] | – | – | 51.6% |

Reference: patent publication US8951529B2, “Methods of using small compounds to enhance myeloid derived suppressor cell function for treating autoimmune diseases” (Icahn School of Medicine at Mount Sinai, priority 2009, dated 2015)
